How the values were obtained:
BCL-2/BAK = target: T1, BCL-2/BAK (Homo sapiens, UniProt P10415); test: Screening on inhibitory activity for BCL-2/BAK binding (Cisbio HTRF kit)
T1 construct: purchased Cisbio
Experimental: 1.1 Screening on Inhibitory Activity for BCL-2/BAK Binding
500 nM Tag1-BCL-2 protein stock solution and 20 μM Tag2-BAK protein stock solution were diluted to 5 nM and 120 nM respectively with dilution buffer in kit (model: BCL-2/BAK (BH3) BINDING ASSAY KITS, from Cisbio). 5 μL of Tag1-BCL-2 protein diluent was added to each well, then different compounds dissolved with DMSO were added to the wells with a nanoliter pipettor, allowing the final compound concentrations to be 200 nM to 0.0488 nM (4-fold gradient for 7 concentrations in total). Blank control wells (without enzyme) and negative control wells (with enzyme, plus vehicle DMSO) were set, and 2 replicate wells were set. Finally, 5 μL of Tag2-BAK protein diluent was added to each well, and the mixture was mixed well by centrifugation and incubated at 25° C. for 15 min. 100× anti-Tag1-Eu^3+ and 100× anti-Tag2-XL665 were both diluted to 1× working concentration with the detection buffer in the kit. Anti-Tag1-Eu^3+ and anti-Tag2-XL665 were mixed well in a 1:1 ratio, and the mixture was added to wells at 5 μL/well, and incubated at 25° C. for 2 h or more. The plate was read using a PE Envision multi-functional microplate reader (excitation: […], emission: 665 nm) and IC50 (shown in table 1) was calculated by four-parameter fitting.

BCL-XL/BAK = target: T2, BCL-XL/BAK (Homo sapiens, UniProt Q07817); test: Screening on inhibitory activity for BCL-XL/BAK binding (Cisbio HTRF kit)
T2 construct: purchased Cisbio
T2 sequence (Q07817 whole entry, species assumed): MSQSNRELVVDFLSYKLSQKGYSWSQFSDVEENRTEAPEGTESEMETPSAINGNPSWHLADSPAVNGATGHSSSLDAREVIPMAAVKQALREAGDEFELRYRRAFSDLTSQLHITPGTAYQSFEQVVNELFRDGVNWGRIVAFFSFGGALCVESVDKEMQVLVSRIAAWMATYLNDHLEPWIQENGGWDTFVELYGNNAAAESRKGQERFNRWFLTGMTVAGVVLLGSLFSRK
Experimental: 1.2 Screening on Inhibitory Activity for BCL-XL/BAK Binding
300 nM Tag1-BCL-XL protein stock solution and 10 μM Tag2-BAK protein stock solution were diluted to 2 nM and 80 nM respectively with dilution buffer in kit (model: BCL-XL/BAK (BH3) BINDING ASSAY KITS, from Cisbio). 5 μL of Tag1-BCL-XL protein diluent was added to each well, then different compounds dissolved with DMSO were added to the wells with a nanoliter pipettor, allowing the final compound concentrations to be 2000 nM to 0.488 nM (4-fold gradient for 7 concentrations in total). Blank control wells (without enzyme) and negative control wells (with enzyme, plus vehicle DMSO) were set, and 2 replicate wells were set. Finally, 5 μL of Tag2-BAK protein diluent was added to each well, and the mixture was mixed well by centrifugation and incubated at 25° C. for 15 min. 100× anti-Tag1-Eu^3+ and 100× anti-Tag2-XL665 were both diluted to 1× working concentration with the detection buffer in the kit. Anti-Tag1-Eu^3+ and anti-Tag2-XL665 were mixed well in a 1:1 ratio, and the mixture was added to wells at 5 µL/well, and incubated at 25° C. for 2 h or more. The plate was read using a PE Envision multi-functional microplate reader (excitation: […], emission: 665 nm) and IC50 (shown in table 1) was calculated by four-parameter fitting.

RS4;11 cells = test: Inhibitory effect on proliferation of RS4;11 cells (CCK-8); assay type: cell-based, human; conditions: Homo sapiens, RS4-11, 72 h
Experimental: Experimental Example 2: Inhibitory Effect of Compounds on Proliferation of RS4;11 Cells
RS4;11 cells (from Nanjing Cobioer) in logarithmic growth phase and good cell condition were added to a centrifuge tube and centrifuged at 1500 rpm for 3 min in a low speed centrifuge. The supernatant was discarded, and 5 mL of complete medium (RPMI basic medium+10 wt % fetal bovine serum (FBS)) was added using a pipette for cell resuspension. The cells were counted using a cell counter, diluted with complete medium to a cell density of 2×10^5 cells/mL, and added with an equivalent amount of RPMI basic medium to adjust the serum concentration to 5% and the cell density to 1×10^5 cells/mL for plate seeding. The cells were seeded on a 96-well plate at 100 μL/well using a pipettor, and incubated in an incubator at 37° C., 5% CO2 with saturated humidity. After 24 h of incubation, compounds were loaded using a nanoliter pipettor, 2 duplicate wells were set for each concentration, and cells without compound were used as negative controls. […] Inhibition rate (%)=(mean value of negative control group—mean value of experimental group)/(mean value of negative control group—mean value of blank group)×100%. A dose-response curve was fitted by four-parameter analysis, with the logarithm of compound concentration serving as abscissa and inhibition rate serving as ordinate, so that IC50 was calculated (FIG. 2).

T1 sequence (P10415 whole entry, species assumed): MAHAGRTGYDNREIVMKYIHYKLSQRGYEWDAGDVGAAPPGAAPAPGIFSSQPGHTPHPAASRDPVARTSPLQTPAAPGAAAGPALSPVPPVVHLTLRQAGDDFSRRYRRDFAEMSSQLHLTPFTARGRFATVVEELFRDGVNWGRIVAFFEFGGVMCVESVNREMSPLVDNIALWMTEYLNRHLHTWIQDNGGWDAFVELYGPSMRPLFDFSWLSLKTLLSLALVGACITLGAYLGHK

Compound	IC50 (BCL-2/BAK)	IC50 (BCL-XL/BAK)	IC50 (RS4;11 cells)
CC(C)C(=O)N1CCO[C@@H](CNc2ccc(S(=O)(=O)NC(=O)c3ccc(N4CCN(CC5=C(c6ccc(C(F)(F)F)cc6Cl)CC(C)(C)CC5)CC4)cc3Oc3cnc4[nH]ccc4c3)cc2[N+](=O)[O-])C1 [Compound 62-1, (S)-4-(4-{[2-(2-chloro-4-trifluoromethylphenyl)-4,4-dimethylcyclohex-1-enyl]methyl}-piperazin-1-yl)-N-({3-nitro-4-[((4-isobutyrylmorpholin-2-yl)methyl)amino]phenyl}sulfonyl)-2-(1H-pyrrolo[2,3-b]pyridin-5-yloxy)-benzamide]	2.35 nM	145 nM	4.1 nM
CC1(C)CCC(CN2CCN(c3ccc(C(=O)NS(=O)(=O)c4ccc(NC[C@H]5CN(S(C)(=O)=O)CCO5)c([N+](=O)[O-])c4)c(Oc4cnc5[nH]ccc5c4)c3)CC2)=C(c2ccc(C(F)(F)F)cc2Cl)C1 [Compound 63-1, (S)-4-(4-{[2-(2-chloro-4-trifluoromethylphenyl)-4,4-dimethylcyclohex-1-enyl]methyl}-piperazin-1-yl)-N-({3-nitro-4-[(((4-(methylsulfonyl)morpholin)-2-yl)methyl)amino]phenyl}sulfonyl)-2-(1H-pyrrolo[2,3-b]pyridin-5-yloxy)-benzamide]	2.3 nM	217 nM	1.4 nM
CC(C)C(=O)N1CCO[C@H](CNc2ccc(S(=O)(=O)NC(=O)c3ccc(N4CCN(CC5=C(c6ccc(C(F)(F)F)cc6Cl)CC(C)(C)CC5)CC4)cc3Oc3cnc4[nH]ccc4c3)cc2[N+](=O)[O-])C1 [Compound 66-1, (R)-4-(4-{[2-(2-chloro-4-trifluoromethylphenyl)-4,4-dimethylcyclohex-1-enyl]methyl}-piperazin-1-yl)-N-({3-nitro-4-[((4-isobutyrylmorpholin-2-yl)methyl)amino]phenyl}sulfonyl)-2-(1H-pyrrolo[2,3-b]pyridin-5-yloxy)-benzamide]	2.6 nM	273 nM	3.3 nM
CC1(C)CCC(CN2CCN(c3ccc(C(=O)NS(=O)(=O)c4ccc(NC[C@@H]5CN(S(C)(=O)=O)CCO5)c([N+](=O)[O-])c4)c(Oc4cnc5[nH]ccc5c4)c3)CC2)=C(c2ccc(C(F)(F)F)cc2Cl)C1 [Compound 67-1, (R)-4-(4-{[2-(2-chloro-4-trifluoromethylphenyl)-4,4-dimethylcyclohex-1-enyl]methyl}-piperazin-1-yl)-N-({3-nitro-4-[(((4-(methylsulfonyl)morpholin)-2-yl)methyl)amino]phenyl}sulfonyl)-2-(1H-pyrrolo[2,3-b]pyridin-5-yloxy)-benzamide]	0.6 nM	199 nM	0.8 nM
CC1(C)CCC(CN2CCN(c3ccc(C(=O)NS(=O)(=O)c4ccc(NCCCC5CN(S(C)(=O)=O)CCO5)c([N+](=O)[O-])c4)c(Oc4cnc5[nH]ccc5c4)c3)CC2)=C(c2ccc(C(F)(F)F)cc2Cl)C1 (stereo not drawn) [Compound 71-1, 4-(4-{[2-(2-chloro-4-trifluoromethylphenyl)-4,4-dimethylcyclohex-1-enyl]methyl}-piperazin-1-yl)-N-({3-nitro-4-[(3-(4-(2-methylsulfonyl)morpholin-2-yl)propyl)amino]phenyl}sulfonyl)-2-(1H-pyrrolo[2,3-b]pyridin-5-yloxy)-benzamide]	0.76 nM	109 nM	6.1 nM
COCC(=O)N1CCC(CNc2ccc(S(=O)(=O)NC(=O)c3ccc(N4CCN(CC5=C(c6ccc(C(F)(F)F)cc6Cl)CC(C)(C)CC5)CC4)cc3Oc3cnc4[nH]ccc4c3)cc2[N+](=O)[O-])CC1 [Compound 73-1, 4-(4-{[2-(2-chloro-4-trifluoromethylphenyl)-4,4-dimethylcyclohex-1-enyl]methyl}-piperazin-1-yl)-N-({3-nitro-4-[((1-(2-methoxyacetyl)piperidin-4-yl)methyl)amino]phenyl}sulfonyl)-2-(1H-pyrrolo[2,3-b]pyridin-5-yloxy)-benzamide]	1.6 nM	204 nM	1.5 nM
CCOC(=O)N1CCOC(CNc2ccc(S(=O)(=O)NC(=O)c3ccc(N4CCN(CC5=C(c6ccc(C(F)(F)F)cc6Cl)CC(C)(C)CC5)CC4)cc3Oc3cnc4[nH]ccc4c3)cc2[N+](=O)[O-])C1 (stereo not drawn) [Compound 74-1, 4-(4-{[2-(2-chloro-4-trifluoromethylphenyl)-4,4-dimethylcyclohex-1-enyl]methyl}-piperazin-1-yl)-N-({3-nitro-4-[((4-(ethoxyformyl)morpholin-2-yl)methyl)amino]phenyl}sulfonyl)-2-(1H-pyrrolo[2,3-b]pyridin-5-yloxy)-benzamide]	1.66 nM	252 nM	6.9 nM
COC(=O)N1CCOC(CNc2ccc(S(=O)(=O)NC(=O)c3ccc(N4CCN(CC5=C(c6ccc(C(F)(F)F)cc6Cl)CC(C)(C)CC5)CC4)cc3Oc3cnc4[nH]ccc4c3)cc2[N+](=O)[O-])C1 (stereo not drawn) [Compound 75-1, 4-(4-{[2-(2-chloro-4-trifluoromethylphenyl)-4,4-dimethylcyclohex-1-enyl]methyl}-piperazin-1-yl)-N-({3-nitro-4-[((4-(methoxyformyl)morpholin-2-yl)methyl)amino]phenyl}sulfonyl)-2-(1H-pyrrolo[2,3-b]pyridin-5-yloxy)-benzamide]	3.5 nM	322 nM	3.9 nM

Source: US20250257064A1, “TRIFLUOROMETHYL-SUBSTITUTED SULFONAMIDE AS BCL-2-SELECTIVE INHIBITOR” (Chia Tai Tianqing Pharmaceutical Group Co., Ltd., priority 2018, published 2025)
